{"source": "PubChem BioAssay AID276", "about": "(DTP/NCI, 2004)", "test_system": "B6C3F1 mice, Lewis lung carcinoma iv, survival T/C", "test": "NCI In Vivo Anticancer Drug Screen. Data for tumor model Lewis Lung Carcinoma (intravenous) in B6C3F1 mice", "conditions": "endpoint: median survival time, higher = longer survival", "how_it_was_run": "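Antitumor activity is assessed in tumor-bearing mice by comparing survival after compound treatment against vehicle-treated controls, reported as a T/C ratio.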", "key": {"[1]": {"conditions": "dose: 3.12 mg/kg/injection, schedule: Q01DX009 (ip), vehicle: saline with Tween-80"}, "[2]": {"conditions": "dose: 6.25 mg/kg/injection, schedule: Q01DX009 (ip), vehicle: saline with Tween-80"}, "[3]": {"conditions": "dose: 12.5 mg/kg/injection, schedule: Q01DX009 (ip), vehicle: saline with Tween-80"}, "[4]": {"conditions": "dose: 25.0 mg/kg/injection, schedule: Q01DX009 (ip), vehicle: saline with Tween-80"}, "[5]": {"conditions": "dose: 50.0 mg/kg/injection, schedule: Q01DX009 (ip), vehicle: saline with Tween-80"}}, "note": "Where “and” joins values, the source holds several entries; their conditions need not be identical. Identical values can stand only once. Toxic doses and inconclusive results are not listed.", "data": [{"smiles": "Cc1ccoc1", "values": [{"measurement": "T/C", "setting": "dose: 8.3 mg/kg/injection, schedule: Q03HX027 (ip), vehicle: saline with Tween-80", "result": "107 % of control"}, {"measurement": "T/C", "setting": "dose: 16.6 mg/kg/injection, schedule: Q03HX027 (ip), vehicle: saline with Tween-80", "result": "112 % of control"}, {"measurement": "T/C", "setting": "dose: 33.3 mg/kg/injection, schedule: Q03HX027 (ip), vehicle: saline with Tween-80", "result": "100 % of control"}, {"measurement": "T/C", "setting": "dose: 66.6 mg/kg/injection, schedule: Q03HX027 (ip), vehicle: saline with Tween-80", "result": "102 % of control"}]}, {"smiles": "CCCCCCCCCCCCSC1=C(Cl)C(=O)C(OC)=C(OC)C1=O", "values": [{"measurement": "T/C", "setting": "[1]", "result": "99 % of control"}, {"measurement": "T/C", "setting": "[2]", "result": "94 % of control"}, {"measurement": "T/C", "setting": "[3]", "result": "99 % of control"}, {"measurement": "T/C", "setting": "[4]", "result": "94 % of control"}, {"measurement": "T/C", "setting": "[5]", "result": "96 % of control"}]}, {"smiles": "Cc1cc(NCCCCCCCCNc2cc(C)nc3cc(N(C)C)ccc23)c2ccc(N(C)C)cc2n1", "values": [{"measurement": "T/C", "setting": "dose: 3.12 mg/kg/injection, schedule: Q01DX009 (ip), vehicle: distilled water + Tween-80 + alcohol", "result": "102 % of control"}, {"measurement": "T/C", "setting": "dose: 6.25 mg/kg/injection, schedule: Q01DX009 (ip), vehicle: distilled water + Tween-80 + alcohol", "result": "102 % of control"}, {"measurement": "T/C", "setting": "dose: 12.5 mg/kg/injection, schedule: Q01DX009 (ip), vehicle: distilled water + Tween-80 + alcohol", "result": "109 % of control"}, {"measurement": "T/C", "setting": "dose: 25.0 mg/kg/injection, schedule: Q01DX009 (ip), vehicle: distilled water + Tween-80 + alcohol", "result": "111 % of control and 118 % of control"}]}, {"smiles": "COc1cccc2c1C(=O)c1c(O)c3c(c(O)c1C2=O)C[C@@](O)(C(C)=O)C[C@@H]3OC1CC(N(Cc2ccccc2)Cc2ccccc2)C(O)C(C)O1", "note": "(stereo partly drawn)", "values": [{"measurement": "T/C", "setting": "dose: 1.5 mg/kg/injection, schedule: Q01DX009 (ip), vehicle: saline with Tween-80", "result": "104 % of control"}, {"measurement": "T/C", "setting": "dose: 1.5 mg/kg/injection, schedule: Q01DX009 (ip), vehicle: water", "result": "96 % of control"}, {"measurement": "T/C", "setting": "dose: 1.56 mg/kg/injection, schedule: Q01DX009 (ip), vehicle: saline with Tween-80", "result": "103 % of control"}, {"measurement": "T/C", "setting": "dose: 3.0 mg/kg/injection, schedule: Q01DX009 (ip), vehicle: saline with Tween-80", "result": "112 % of control"}, {"measurement": "T/C", "setting": "dose: 3.0 mg/kg/injection, schedule: Q01DX009 (ip), vehicle: water", "result": "99 % of control"}, {"measurement": "T/C", "setting": "[1]", "result": "114 % of control"}, {"measurement": "T/C", "setting": "dose: 6.0 mg/kg/injection, schedule: Q01DX009 (ip), vehicle: saline with Tween-80", "result": "113 % of control"}, {"measurement": "T/C", "setting": "[2]", "result": "112 % of control and 116 % of control"}]}, {"smiles": "c1ccc2sc(SSN3CC4CCC(CC4)C3)nc2c1", "values": [{"measurement": "T/C", "setting": "[3]", "result": "100 % of control"}, {"measurement": "T/C", "setting": "[4]", "result": "93 % of control"}, {"measurement": "T/C", "setting": "[5]", "result": "90 % of control"}, {"measurement": "T/C", "setting": "dose: 100.0 mg/kg/injection, schedule: Q01DX009 (ip), vehicle: saline with Tween-80", "result": "91 % of control"}, {"measurement": "T/C", "setting": "dose: 200.0 mg/kg/injection, schedule: Q01DX009 (ip), vehicle: saline with Tween-80", "result": "106 % of control"}]}, {"smiles": "CN(C)[C@@H]1C(=O)C(C(N)=O)=C(O)[C@@]2(O)C(=O)C3=C(O)c4c(O)ccc(Cl)c4[C@@](C)(O)[C@H]3C[C@@H]12", "values": [{"measurement": "T/C", "setting": "dose: 12.5 mg/kg/injection, schedule: Q01DX009 (ip), vehicle: saline", "result": "100 % of control"}, {"measurement": "T/C", "setting": "dose: 25.0 mg/kg/injection, schedule: Q01DX009 (ip), vehicle: saline", "result": "100 % of control"}, {"measurement": "T/C", "setting": "dose: 50.0 mg/kg/injection, schedule: Q01DX009 (ip), vehicle: saline", "result": "109 % of control"}, {"measurement": "T/C", "setting": "dose: 100.0 mg/kg/injection, schedule: Q01DX009 (ip), vehicle: saline", "result": "113 % of control"}, {"measurement": "T/C", "setting": "dose: 200.0 mg/kg/injection, schedule: Q01DX009 (ip), vehicle: saline", "result": "101 % of control"}]}, {"smiles": "CC(CN1CC(=O)NC(=O)C1)N1CC(=O)NC(=O)C1", "note": "(stereo not drawn)", "values": [{"measurement": "T/C", "setting": "dose: 108.0 mg/kg/injection, schedule: Q04DX003 (ip), vehicle: Klucel (hydroxypropylcellulose) (HPC)", "result": "109 % of control"}, {"measurement": "T/C", "setting": "dose: 180.0 mg/kg/injection, schedule: Q04DX003 (ip), vehicle: Klucel (hydroxypropylcellulose) (HPC)", "result": "119 % of control"}, {"measurement": "T/C", "setting": "dose: 300.0 mg/kg/injection, schedule: Q04DX003 (ip), vehicle: Klucel (hydroxypropylcellulose) (HPC)", "result": "158 % of control"}]}, {"smiles": "COC(=O)Nc1cn2ccc(C(Cl)=C(Cl)Cl)cc2n1", "values": [{"measurement": "T/C", "setting": "dose: 100.0 mg/kg/injection, schedule: Q01DX009 (ip), vehicle: Klucel (hydroxypropylcellulose) (HPC)", "result": "116 % of control"}, {"measurement": "T/C", "setting": "dose: 200.0 mg/kg/injection, schedule: Q01DX009 (ip), vehicle: Klucel (hydroxypropylcellulose) (HPC)", "result": "103 % of control"}]}, {"smiles": "CO[C@H](/C(C)=C/C=C/C(C)=C/c1coc(C)n1)[C@H](C)[C@H]1C[C@@H](O)[C@@]2(C)O[C@H]2/C=C/[C@@H](C)[C@@H]2C[C@@H](CC(=O)O2)C[C@H]2O[C@@H]2C(=O)O1", "values": [{"measurement": "T/C", "setting": "dose: 20.0 micrograms/kg/injection, schedule: Q01DX009 (ip), vehicle: Klucel (hydroxypropylcellulose) (HPC)", "result": "96 % of control"}, {"measurement": "T/C", "setting": "dose: 40.0 micrograms/kg/injection, schedule: Q01DX009 (ip), vehicle: Klucel (hydroxypropylcellulose) (HPC)", "result": "103 % of control"}, {"measurement": "T/C", "setting": "dose: 80.0 micrograms/kg/injection, schedule: Q01DX009 (ip), vehicle: Klucel (hydroxypropylcellulose) (HPC)", "result": "105 % of control"}]}, {"smiles": "CC(C)(C)c1ccc(CN2CCN(C(c3ccccc3)c3ccc(Cl)cc3)CC2)cc1", "note": "(stereo not drawn)", "values": [{"measurement": "T/C", "setting": "dose: 8.0 mg/kg/injection, schedule: Q01DX009 (ip), vehicle: Klucel (hydroxypropylcellulose) (HPC)", "result": "117 % of control"}, {"measurement": "T/C", "setting": "dose: 16.0 mg/kg/injection, schedule: Q01DX009 (ip), vehicle: Klucel (hydroxypropylcellulose) (HPC)", "result": "115 % of control"}, {"measurement": "T/C", "setting": "dose: 32.0 mg/kg/injection, schedule: Q01DX009 (ip), vehicle: Klucel (hydroxypropylcellulose) (HPC)", "result": "105 % of control"}, {"measurement": "T/C", "setting": "dose: 64.0 mg/kg/injection, schedule: Q01DX009 (ip), vehicle: Klucel (hydroxypropylcellulose) (HPC)", "result": "103 % of control"}]}]}
